These results are taken from US20130130241A1, “ANDROGEN RECEPTOR ISOFORMS AND METHODS” (Regents of the University of Minnesota, priority 2010, published 2013).

The subject of data set [1] is LNCaP cells expressing truncated AR isoforms. As to conditions: Watson et al., 2010; cited from earlier work.
For data set [2], the system named is patients with ADI prostate cancer. The following applies: Phase II trial; Scher et al., 2010; cited from earlier work.
Another data set deals with androgen receptor. As to the kind of experiment: AR knock-down by siRNA in 22Rv1 cells, Western blot. The class given is cell-based, human. The following applies: for expression of androgen receptor isoforms (Western blot): FIG. 3B. The procedure: FIG. 3. A) Schematic of androgen receptor mRNA isoforms expressed in 22Rv1 cells. DBD*, Exon 3-duplicated AR. B) 22Rv1 cells were electroporated with siRNAs targeted to Exons […]. androgen receptor and ERK-2 levels were determined. C) Rabbit antisera were raised against an Exon 2b-derived peptide. Equal amounts of 22Rv1 lysates were immunoprecipitated with crude antisera, or antibody purified on an immobilized Exon2b-peptide column, non-specific rabbit IgG, or a rabbit polyclonal antibody specific for the androgen receptor NTD. Western blots were performed with a mouse monoclonal antibody specific for the androgen receptor NTD.
We have investigated mechanisms of prostate cancer therapy resistance in cell- and xenograft-based models of prostate cancer progression with a focus on ligand-independent androgen receptor activation (Dehm and Tindall, 2006 J Biol Chem 281:27882-93; Dehm and Tindall, 2007 Mol Endocrinol 21:2855-63). One model of interest is the ADI 22Rv1 prostate cancer cell line, which was derived from an androgen-dependent CWR22 prostate cancer xenograft that relapsed during androgen depletion (Sramkoski et al., 1999 In Vitro Cell Dev Biol Anim 35:403-9). […] The Exon 1 and Exon 7 targeted siRNAs were purchased from Dharmacon, Inc. (Lafayette, Colo.). The sequences are as follows:
Truncated androgen receptor from 22Rv1 cells appears as a doublet in Western blot experiments (FIG. 3B). Because 3′ RACE experiments identified AR 1/2/2b and AR 1/2/3/2b as alternatively spliced androgen receptor isoforms in this cell line, we pursued the hypothesis that these two discrete bands represented AR 1/2/2b and AR 1/2/3/2b (Dehm et al., 2008 Cancer Res 68:5469-77). […] To this end, we tested siRNAs targeted to AR Exon 1, AR Exon 3, or AR Exon 7 (FIG. 3A).
Western blotting of CWR22Pc and 22Rv1 lysates with AR (Santa Cruz N-20), ERK-2 (Santa Cruz D-2), and ARV-7 (Precision Antibody #AG10008) antibodies was performed exactly as described (Dehm et al., 2008 Cancer Res 68:5469-77).
On the technique in general: A western blot detects proteins with antibodies after separation by electrophoresis.

A further data set has as its system 22Rv1 cells. The following applies: Dehm et al., 2008; cited from earlier work.
The test system of data set [3] is androgen receptor target genes. The following applies: 22Rv1 cells; Dehm et al., 2008; cited from earlier work.

Take `CNC(=O)c1ccc(N2C(=S)N(c3ccc(C#N)c(C(F)(F)F)c3)C(=O)C2(C)C)cc1F` [MDV3100]: the “androgen-independent growth of LNCaP cells expressing truncated AR isoforms” value in data set [1] was “inhibit”. In data set [2], the “share of CRPCa patients with robust decrease in serum PSA levels (at least 50%), stabilized bone disease, conversion of CTC counts to favorable” value is “one-half”.
Take “AR Exon 1-targeted siRNA: Dharmacon siRNA duplex targeted to AR Exon 1; sense SEQ ID NO: 1, antisense SEQ ID NO: 2 (sense CAAGGGAGGUUACACCAAAUU; antisense UUUGGUGUAACCUCCCUUGUU; listed as RNA, chemistry not given here)”: in the data set on androgen receptor, the “expression of a ~80 kDa androgen receptor protein species” value is on record as “knocked-down” and the “expression of androgen receptor isoforms (Western blot)” value is on record as “knocked down expression of all androgen receptor isoforms”. Moreover, the “androgen-independent proliferation of 22Rv1 cells” value in the data set with 22Rv1 cells is listed as “inhibited”. In addition, in data set [3], the “androgen-independent expression of androgen receptor target genes” value was “inhibited”.
In the case of “AR Exon 7-targeted siRNA: Dharmacon siRNA duplex targeted to AR Exon 7; sense SEQ ID NO: 3, antisense SEQ ID NO: 4 (sense GGAACUCGAUCGUAUCAUUUU; antisense AAUGAUACGAUCGAGUUCCUU; listed as RNA, chemistry not given here)”, in the data set with androgen receptor, the “expression of androgen receptor isoforms (Western blot)” value is given as “selectively knocked down expression of full-length androgen receptor”. In the data set on 22Rv1 cells, the “androgen-independent proliferation of 22Rv1 cells” value is “not”. Moreover, in data set [3], the “androgen-independent expression of androgen receptor target genes” value is given as “not”.
